Measured values as given in article PMC5908784, “Extracellular loops 2 and 3 of the calcitonin receptor selectively modify agonist binding and efficacy” (Biochemical Pharmacology, 2018).
Changes are numbered by the printed parent chain. Where a SMILES comes first, the peptide text is derived from it. Bridges are numbered along the chain shown (N, C = ends).

Assays:
Experiment in all cases: ERK1/2 phosphorylation
Type in all cases: cell-based
Conditions in all cases: CV1-FlpIn cells, mean ± S.E.M.; for Emax: pERK maximal response; for EC50: pERK, three-parameter logistic fit
[1] = molecular target: T1, hCTR H296A (Homo sapiens, UniProt P30988, H296A)
T1 construct: c-Myc (N); expressed in transfected cells
T1 sequence (P30988 25-474 H296A): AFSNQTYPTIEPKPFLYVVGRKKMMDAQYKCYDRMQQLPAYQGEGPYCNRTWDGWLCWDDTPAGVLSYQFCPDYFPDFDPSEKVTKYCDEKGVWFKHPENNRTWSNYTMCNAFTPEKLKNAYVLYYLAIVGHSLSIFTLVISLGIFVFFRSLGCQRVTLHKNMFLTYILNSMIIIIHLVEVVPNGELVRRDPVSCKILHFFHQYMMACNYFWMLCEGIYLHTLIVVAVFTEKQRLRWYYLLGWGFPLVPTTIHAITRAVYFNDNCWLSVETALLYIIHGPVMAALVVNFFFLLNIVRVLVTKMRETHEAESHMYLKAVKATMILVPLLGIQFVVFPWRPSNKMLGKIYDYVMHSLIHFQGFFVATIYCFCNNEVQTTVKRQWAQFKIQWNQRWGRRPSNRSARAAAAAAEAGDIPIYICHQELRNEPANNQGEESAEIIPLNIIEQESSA
In short: (§1)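 Cells were seeded at 2.5 × 10^4 cells/well and cultured overnight before stimulation. ERK1/2 phosphorylation was normalized to the maximal response to 10% FBS measured at 6 min. EC50 and Emax came from a 3-parameter logistic fit of concentration-response curves.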

[2] = molecular target: T2, hCTR N288A (Homo sapiens, UniProt P30988, N288A)
T2 construct: expressed in transfected cells
T2 sequence (P30988 25-474 N288A): T1 sequence (P30988 25-474 H296A) with N264A, A272H
In short: as §1

[3] = molecular target: T3, hCTR V283A (Homo sapiens, UniProt P30988, V283A)
T3 construct: expressed in transfected cells
T3 sequence (P30988 25-474 V283A): T1 sequence (P30988 25-474 H296A) with V259A, A272H
In short: as §1

[4] = molecular target: T4, hCTR V293A (Homo sapiens, UniProt P30988, V293A)
T4 construct: c-Myc (N); expressed in transfected cells
T4 sequence (P30988 25-474 V293A): T1 sequence (P30988 25-474 H296A) with V269A, A272H
In short: as §1

[5] = molecular target: T5, hCTR Y284A (Homo sapiens, UniProt P30988, Y284A)
T5 construct: expressed in transfected cells
T5 sequence (P30988 25-474 Y284A): T1 sequence (P30988 25-474 H296A) with Y260A, A272H
In short: as §1

EC50 [1] [nM] | EC50 [2] [nM] | EC50 [3] [nM] | EC50 [4] [nM] | EC50 [5] [nM] | SMILES | Emax [1] [%] | Emax [2] [%] | Emax [3] [%] | Emax [4] [%] | Emax [5] [%]
– | – | – | – | – | CC[C@H](C)[C@H](NC(=O)[C@H](C)NC(=O)[C@@H](NC(=O)[C@H](CCC(N)=O)NC(=O)[C@@H]1CCCN1C(=O)[C@H](Cc1ccccc1)NC(=O)[C@@H](NC(=O)[C@H](Cc1c[nH]cn1)NC(=O)[C@H](Cc1ccccc1)NC(=O)[C@H](CCCCN)NC(=O)[C@H](CC(N)=O)NC(=O)[C@H](Cc1ccccc1)NC(=O)[C@H](CC(=O)O)NC(=O)[C@H](CCC(N)=O)NC(=O)[C@@H](NC(=O)[C@H](Cc1ccc(O)cc1)NC(=O)[C@@H](NC(=O)CNC(=O)[C@H](CC(C)C)NC(=O)[C@H](CCSC)NC(=O)[C@@H]1CSSC[C@H](N)C(=O)NCC(=O)N[C@@H](CC(N)=O)C(=O)N[C@@H](CC(C)C)C(=O)N[C@@H](CO)C(=O)N[C@@H]([C@@H](C)O)C(=O)N1)[C@@H](C)O)[C@@H](C)O)[C@@H](C)O)[C@@H](C)O)C(=O)NCC(=O)N[C@H](C(=O)NCC(=O)N[C@@H](C)C(=O)N1CCC[C@H]1C(N)=O)C(C)C [hCT] | 148 ± 8 | 137 ± 8 | 155 ± 14 | 130 ± 8 | 82 ± 7
91.2 | 97.7 | 60.3 | 52.5 | 112 | CC(C)C[C@H](NC(=O)CNC(=O)[C@H](C)NC(=O)[C@H](CC(C)C)NC(=O)[C@H](CCCNC(=N)N)NC(=O)[C@H](Cc1cnc[nH]1)NC(=O)[C@@H](NC(=O)[C@@H](NC(=O)[C@@H]1CSSC[C@H](NC(=O)[C@H](C)N)C(=O)N[C@@H](CC(=O)O)C(=O)N[C@@H]([C@@H](C)O)C(=O)N[C@@H](C)C(=O)N[C@@H]([C@@H](C)O)C(=O)N1)C(C)C)[C@@H](C)O)C(=O)N[C@@H](CC(C)C)C(=O)N[C@@H](CO)C(=O)N[C@@H](CCCNC(=N)N)C(=O)N[C@@H](CO)C(=O)NCC(=O)NCC(=O)N[C@H](C(=O)N[C@H](C(=O)N[C@@H](CCCCN)C(=O)N[C@@H](CC(N)=O)C(=O)N[C@@H](CC(N)=O)C(=O)N[C@@H](Cc1ccccc1)C(=O)N[C@H](C(=O)N1CCC[C@H]1C(=O)N[C@H](C(=O)N[C@@H](CC(N)=O)C(=O)N[C@H](C(=O)NCC(=O)N[C@@H](CO)C(=O)N[C@@H](CCCCN)C(=O)N[C@@H](C)C(=O)N[C@@H](Cc1ccccc1)C(N)=O)C(C)C)[C@@H](C)O)C(C)C)C(C)C)C(C)C [hαCGRP] | 77 ± 11 | 110 ± 10 | 81 ± 7 | 149 ± 22 | 79 ± 15
2.34 | 2.95 | 2.24 | 3.16 | 1.2 | CSCC[C@H](NC(=O)CNC(=O)[C@H](CO)NC(=O)[C@H](Cc1ccccc1)NC(=O)[C@H](CCCNC(=N)N)NC(=O)[C@H](Cc1c[nH]cn1)NC(=O)[C@H](Cc1ccccc1)NC(=O)[C@H](CC(N)=O)NC(=O)[C@H](CC(N)=O)NC(=O)[C@H](CC(C)C)NC(=O)[C@H](CC(N)=O)NC(=O)[C@H](CCCNC(=N)N)NC(=O)[C@H](Cc1c[nH]c2ccccc12)NC(=O)[C@H](Cc1ccc(O)cc1)NC(=O)[C@H](C)NC(=O)[C@H](CO)NC(=O)[C@H](CC(C)C)NC(=O)[C@@H](NC(=O)[C@@H]1CSSC[C@H](N)C(=O)N[C@@H](CO)C(=O)N[C@@H](CC(N)=O)C(=O)N[C@@H](CC(C)C)C(=O)N[C@@H](CO)C(=O)N[C@@H]([C@@H](C)O)C(=O)N1)C(C)C)C(=O)NCC(=O)N[C@@H](Cc1ccccc1)C(=O)NCC(=O)N1CCC[C@H]1C(=O)N[C@@H](CCC(=O)O)C(=O)N[C@H](C(=O)N1CCC[C@H]1C(N)=O)[C@@H](C)O [pCT] (H-CSNLSTCVLSAYWRNLNNFHRFSGMGFGPETP-NH2; disulfide 1-7) | 163 ± 10 | 135 ± 11 | 109 ± 12 | 136 ± 11 | 81 ± 6
– | – | – | – | – | CC(C)C[C@H](NC(=O)[C@H](CC(N)=O)NC(=O)[C@H](CC(N)=O)NC(=O)[C@H](CO)NC(=O)[C@H](CO)NC(=O)[C@H](CCCNC(=N)N)NC(=O)[C@@H](NC(=O)[C@H](CC(C)C)NC(=O)[C@H](Cc1ccccc1)NC(=O)[C@H](CC(N)=O)NC(=O)[C@H](C)NC(=O)[C@H](CC(C)C)NC(=O)[C@H](CCCNC(=N)N)NC(=O)[C@H](CCC(N)=O)NC(=O)[C@@H](NC(=O)[C@H](C)NC(=O)[C@@H]1CSSC[C@H](NC(=O)[C@@H](N)CCCCN)C(=O)N[C@@H](CC(N)=O)C(=O)N[C@@H]([C@@H](C)O)C(=O)N[C@@H](C)C(=O)N[C@@H]([C@@H](C)O)C(=O)N1)[C@@H](C)O)C(C)C)C(=O)NCC(=O)N1CCC[C@H]1C(=O)N[C@H](C(=O)N[C@@H](CC(C)C)C(=O)N1CCC[C@H]1C(=O)N1CCC[C@H]1C(=O)N[C@H](C(=O)N[C@@H](CC(N)=O)C(=O)N[C@H](C(=O)NCC(=O)N[C@@H](CO)C(=O)N[C@@H](CC(N)=O)C(=O)N[C@H](C(=O)N[C@@H](Cc1ccc(O)cc1)C(N)=O)[C@@H](C)O)C(C)C)[C@@H](C)O)C(C)C [rAmy] | 82 ± 8 | 79 ± 7 | 83 ± 9 | 67 ± 8 | 64 ± 6
– | – | – | – | – | CC(C)C[C@H](NC(=O)[C@H](CCCCN)NC(=O)CNC(=O)[C@H](CC(C)C)NC(=O)[C@@H](NC(=O)[C@@H]1CSSC[C@H](N)C(=O)N[C@@H](CO)C(=O)N[C@@H](CC(N)=O)C(=O)N[C@@H](CC(C)C)C(=O)N[C@@H](CO)C(=O)N[C@@H]([C@@H](C)O)C(=O)N1)C(C)C)C(=O)N[C@@H](CO)C(=O)N[C@@H](CCC(N)=O)C(=O)N[C@@H](CCC(=O)O)C(=O)N[C@@H](CC(C)C)C(=O)N[C@@H](Cc1c[nH]cn1)C(=O)N[C@@H](CCCCN)C(=O)N[C@@H](CC(C)C)C(=O)N[C@@H](CCC(N)=O)C(=O)N[C@H](C(=O)N[C@@H](Cc1ccc(O)cc1)C(=O)N1CCC[C@H]1C(=O)N[C@@H](CCCNC(=N)N)C(=O)N[C@H](C(=O)N[C@@H](CC(N)=O)C(=O)N[C@H](C(=O)NCC(=O)N[C@@H](CO)C(=O)NCC(=O)N[C@H](C(=O)N1CCC[C@H]1C(N)=O)[C@@H](C)O)[C@@H](C)O)[C@@H](C)O)[C@@H](C)O [sCT] | 152 ± 9 | 127 ± 13 | 133 ± 10 | 135 ± 12 | 96 ± 6
